Where a name gives a salt, the structure may show the parent alone. Calls of active or inactive are those of the source.
Legend:
[1] = AlphaScreen signal interference compounds, dose response, artefact control for ARNT-TACC3 interaction inhibitor project, biochemical, luminescence, cherry-pick (AID 651705); format: functional;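 also: AlphaScreen bead proximity signal that flags compounds interfering with the detection technology; potency reflects signal decrease which marks the compound as an assay artifact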
Protein Wnt-3a = Protein Wnt-3a (Mus musculus, UniProt P27467); assay: Wnt3a-driven reporter signaling inhibition, dose response, selectivity assay for Gli-SUFU antagonist project, Wnt-LIGHT cells, luminescence (AID 651570); format: functional; conditions: read-out: IC50_Mean;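 also: Wnt-LIGHT reporter cells stimulated with conditioned medium from Wnt3a-producing cells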
Streptococcus = assay: Group A Streptococcus viability loss, dose response, counter-screen for streptokinase expression inhibitor project, luminescence, BacTiterGlo (AID 1915); format: functional, organism-based;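 also: potency for reduction of bacterial viability or growth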
[2] = tested on: Streptococcus sp. 'group A'; assay: growth inhibition of control SK(-) GAS strain, dose response, counter-screen for streptokinase expression inhibitor project, luminescence, kanamycin, BacTiterGlo, confirmation (AID 1900); format: functional, organism-based
[3] = molecular target: T1, Hepatocyte nuclear factor 4-alpha (Homo sapiens, UniProt P41235); format: functional, cell-based;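 also: biochemical luminescence-based dose-response counterscreen measuring inhibition of HNF4 dimerization, run alongside a screen for blockers of ABHD5–perilipin-5 interaction; split luciferase complementation of HNF4 fusion proteins in cell lysate measuring dimerization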
T1 sequence (P41235 whole entry): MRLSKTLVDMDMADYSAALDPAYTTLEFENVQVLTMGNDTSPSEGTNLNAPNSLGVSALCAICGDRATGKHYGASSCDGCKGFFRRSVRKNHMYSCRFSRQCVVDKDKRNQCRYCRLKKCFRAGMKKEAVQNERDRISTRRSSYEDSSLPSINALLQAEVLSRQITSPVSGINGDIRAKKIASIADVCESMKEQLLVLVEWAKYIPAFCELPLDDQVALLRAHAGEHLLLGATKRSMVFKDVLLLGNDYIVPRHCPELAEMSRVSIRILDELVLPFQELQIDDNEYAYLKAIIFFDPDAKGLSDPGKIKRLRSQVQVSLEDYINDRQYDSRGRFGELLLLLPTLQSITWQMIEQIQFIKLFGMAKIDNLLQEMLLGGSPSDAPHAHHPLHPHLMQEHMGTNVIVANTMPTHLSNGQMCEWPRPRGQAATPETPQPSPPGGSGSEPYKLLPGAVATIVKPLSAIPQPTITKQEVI

[4] = inhibitors of intracellular T. cruzi replication, confirmation, NIH3T3 host cells, beta-gal luminescence (AID 2044); format: functional, cell-based;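 also: intracellular parasites grown in NIH/3T3 mouse fibroblasts as host cells; luminescent beta-galactosidase reporter signal from transgenic T. cruzi replicating inside host cells; inhibitors lower the luminescence signal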
[5] = cytotoxicity toward NIH3T3 fibroblasts, dose response, counter-screen, cell-based, ATP luminescence, mouse fibroblasts (AID 2010); format: functional;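 also: cells exposed to compound for about 90 hours before reading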
[6] = HEp-2 cell cytotoxicity, dose response, cytotoxicity control for RSV inhibitor project, HTS (AID 2410); format: functional; conditions: human respiratory syncytial virus
[7] = molecular target: T2, Apoptotic protease-activating factor 1 (Homo sapiens, UniProt O14727); format: functional
T2 sequence (O14727 whole entry): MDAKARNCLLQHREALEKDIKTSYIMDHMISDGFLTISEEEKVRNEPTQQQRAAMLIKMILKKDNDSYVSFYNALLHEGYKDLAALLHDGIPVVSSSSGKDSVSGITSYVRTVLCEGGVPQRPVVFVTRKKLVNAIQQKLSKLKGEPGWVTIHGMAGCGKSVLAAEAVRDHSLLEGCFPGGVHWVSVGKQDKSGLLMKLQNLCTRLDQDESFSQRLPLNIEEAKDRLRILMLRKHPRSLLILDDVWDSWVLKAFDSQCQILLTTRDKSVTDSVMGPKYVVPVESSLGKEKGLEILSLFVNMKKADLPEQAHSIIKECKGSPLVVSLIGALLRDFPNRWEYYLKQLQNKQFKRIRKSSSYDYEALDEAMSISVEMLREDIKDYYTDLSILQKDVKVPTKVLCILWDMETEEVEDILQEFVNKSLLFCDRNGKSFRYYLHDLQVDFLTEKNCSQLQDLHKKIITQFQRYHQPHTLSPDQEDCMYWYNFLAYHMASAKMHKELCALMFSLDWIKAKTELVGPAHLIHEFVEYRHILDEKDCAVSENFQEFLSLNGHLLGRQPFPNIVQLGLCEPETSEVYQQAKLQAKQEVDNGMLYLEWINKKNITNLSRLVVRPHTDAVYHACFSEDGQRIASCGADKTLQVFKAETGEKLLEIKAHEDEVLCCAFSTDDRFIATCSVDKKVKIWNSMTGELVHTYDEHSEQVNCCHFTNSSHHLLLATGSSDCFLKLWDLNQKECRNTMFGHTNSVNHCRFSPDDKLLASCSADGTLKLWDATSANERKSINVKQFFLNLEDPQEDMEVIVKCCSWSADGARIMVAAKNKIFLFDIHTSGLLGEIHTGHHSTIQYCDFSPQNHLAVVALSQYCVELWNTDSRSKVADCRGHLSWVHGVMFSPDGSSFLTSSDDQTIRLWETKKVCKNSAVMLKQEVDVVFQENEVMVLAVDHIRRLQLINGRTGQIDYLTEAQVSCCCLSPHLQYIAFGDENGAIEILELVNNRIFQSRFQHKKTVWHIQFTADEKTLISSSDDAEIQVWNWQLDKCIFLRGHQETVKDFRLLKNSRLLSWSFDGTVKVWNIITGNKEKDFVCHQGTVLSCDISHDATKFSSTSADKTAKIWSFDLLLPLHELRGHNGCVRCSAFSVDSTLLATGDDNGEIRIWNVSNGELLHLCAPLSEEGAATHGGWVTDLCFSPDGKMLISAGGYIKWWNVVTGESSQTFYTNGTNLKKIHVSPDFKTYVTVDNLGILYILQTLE

INS1 = assay: beta cell apoptosis inhibitors, cytokine rescue, dose response, luminescence, retest (AID 449756); format: functional, cell-based; conditions: Rattus norvegicus;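 also: cell death triggered by IL-1 beta plus TNF-alpha plus IFN-gamma mixture; protective hits raise ATP signal compared with cytokine alone wells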
[8] = molecular target: Heat shock protein HSP 90-alpha (Homo sapiens, UniProt P07900); format: functional, organism-based
[9] = growth suppression of PTEN-null colon cells, dose response, cell-based, HCT116 PTEN knockout (AID 1047); format: functional;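 also: HCT116 colon tumor cells with PTEN knocked out; cells exposed to compound for 60 hours before readout; potency for loss of cell viability measured by luminescence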
[10] = Luminescence Cell-Based Dose Retest to Confirm Inhibitors of Cancer Stem Cells. [Related pubchem assays (depositor defined):AID2717, AID2721]; format: functional; conditions: Homo sapiens
[11] = growth suppression of beta-catenin-knockout colon cells, dose response, cell-based, HCT116, human colon tumor (AID 1045); format: functional;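 also: HCT116 colon tumor cells with beta catenin knocked out; cells exposed to compound for 60 hours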
[12] = HepG2 cell cytotoxicity, dose response, cytotoxicity control for Shn3 inhibitor project, CellTiter-Glo, cherry-picked (AID 624134); format: functional, cell-based
[13] = Shn3 3'UTR reporter inhibitors, dose response, cell-based, Clone20 osteoblasts, firefly luciferase, cherry-picked (AID 624132); format: functional;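 also: firefly luciferase luminescence from reporter carrying the Shn3 3'UTR in osteoblasts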
Protein RecA = molecular target: T3, Protein RecA (Mycobacterium tuberculosis, UniProt P9WHJ3); assay: Fluorescence Cell-Free Homogeneous Dose Retest to Identify Inhibitors of RecA-Intein Splicing Activity. [Related pubchem assays (depositor defined):AID2097, AID2223, AID489010, AID492950]; format: functional
T3 sequence (P9WHJ3 whole entry): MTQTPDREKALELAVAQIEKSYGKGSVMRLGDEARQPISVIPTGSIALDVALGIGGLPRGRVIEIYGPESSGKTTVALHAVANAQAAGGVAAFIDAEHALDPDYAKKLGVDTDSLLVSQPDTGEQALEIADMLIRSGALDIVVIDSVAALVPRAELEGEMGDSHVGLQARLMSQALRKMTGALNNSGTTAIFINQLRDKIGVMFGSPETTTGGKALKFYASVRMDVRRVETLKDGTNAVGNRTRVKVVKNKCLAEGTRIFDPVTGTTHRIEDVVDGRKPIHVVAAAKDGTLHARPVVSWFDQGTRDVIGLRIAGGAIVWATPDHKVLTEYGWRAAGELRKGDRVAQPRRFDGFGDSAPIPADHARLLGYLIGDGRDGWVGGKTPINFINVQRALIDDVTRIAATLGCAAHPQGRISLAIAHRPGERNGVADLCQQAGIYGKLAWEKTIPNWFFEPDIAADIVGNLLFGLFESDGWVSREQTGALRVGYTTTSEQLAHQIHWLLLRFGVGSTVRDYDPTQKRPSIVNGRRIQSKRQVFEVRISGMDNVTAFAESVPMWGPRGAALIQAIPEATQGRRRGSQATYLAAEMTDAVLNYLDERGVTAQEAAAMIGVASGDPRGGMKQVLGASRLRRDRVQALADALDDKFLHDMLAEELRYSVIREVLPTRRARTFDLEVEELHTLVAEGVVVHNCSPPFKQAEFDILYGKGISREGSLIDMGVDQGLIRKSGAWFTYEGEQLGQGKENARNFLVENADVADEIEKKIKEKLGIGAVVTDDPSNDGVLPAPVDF

Aminopeptidase N = molecular target: T4, Aminopeptidase N (Plasmodium falciparum FcB1/Columbia, UniProt O96935); assay: P. falciparum M1AAP inhibitors, biochemical, fluorogenic H-Leu-NHMec substrate, 1536-well (AID 1445); parameters: species or system Plasmodium falciparum 3D7, 3D7
T4 sequence (O96935 whole entry): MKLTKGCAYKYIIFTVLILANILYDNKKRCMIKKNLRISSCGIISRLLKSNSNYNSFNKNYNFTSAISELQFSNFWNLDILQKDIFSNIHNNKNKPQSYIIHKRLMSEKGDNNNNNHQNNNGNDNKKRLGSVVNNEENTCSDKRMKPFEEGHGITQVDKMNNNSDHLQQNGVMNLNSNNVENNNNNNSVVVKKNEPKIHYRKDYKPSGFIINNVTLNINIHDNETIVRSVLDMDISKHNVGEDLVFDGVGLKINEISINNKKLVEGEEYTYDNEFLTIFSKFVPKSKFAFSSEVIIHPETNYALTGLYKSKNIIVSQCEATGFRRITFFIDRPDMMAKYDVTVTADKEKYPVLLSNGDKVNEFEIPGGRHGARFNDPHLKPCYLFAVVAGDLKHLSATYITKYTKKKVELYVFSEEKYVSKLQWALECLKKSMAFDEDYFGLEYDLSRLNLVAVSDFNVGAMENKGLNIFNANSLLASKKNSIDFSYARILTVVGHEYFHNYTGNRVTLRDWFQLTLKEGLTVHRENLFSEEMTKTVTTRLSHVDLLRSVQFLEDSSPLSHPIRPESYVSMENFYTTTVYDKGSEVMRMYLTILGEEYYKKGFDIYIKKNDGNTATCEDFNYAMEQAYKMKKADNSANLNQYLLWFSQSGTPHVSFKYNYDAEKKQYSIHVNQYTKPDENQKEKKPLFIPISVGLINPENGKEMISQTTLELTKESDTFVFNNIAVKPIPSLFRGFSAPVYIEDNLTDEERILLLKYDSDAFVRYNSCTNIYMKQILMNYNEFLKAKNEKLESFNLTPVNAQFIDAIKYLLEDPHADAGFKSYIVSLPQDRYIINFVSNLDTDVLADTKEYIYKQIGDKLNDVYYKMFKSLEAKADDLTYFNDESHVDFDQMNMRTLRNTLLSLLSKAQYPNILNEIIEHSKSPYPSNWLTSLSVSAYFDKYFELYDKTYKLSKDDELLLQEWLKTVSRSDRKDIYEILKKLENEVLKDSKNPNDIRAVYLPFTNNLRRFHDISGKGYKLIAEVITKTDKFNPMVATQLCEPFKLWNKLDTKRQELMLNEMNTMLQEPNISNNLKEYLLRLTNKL

[14] = molecular target: T5, Replicative DNA helicase DnaB (Mycobacterium tuberculosis, UniProt P9WMR3); assay: DnaB intein splicing inhibitors, dose response, biochemical, cell-free fluorescence (AID 449749); format: functional
T5 sequence (P9WMR3 whole entry): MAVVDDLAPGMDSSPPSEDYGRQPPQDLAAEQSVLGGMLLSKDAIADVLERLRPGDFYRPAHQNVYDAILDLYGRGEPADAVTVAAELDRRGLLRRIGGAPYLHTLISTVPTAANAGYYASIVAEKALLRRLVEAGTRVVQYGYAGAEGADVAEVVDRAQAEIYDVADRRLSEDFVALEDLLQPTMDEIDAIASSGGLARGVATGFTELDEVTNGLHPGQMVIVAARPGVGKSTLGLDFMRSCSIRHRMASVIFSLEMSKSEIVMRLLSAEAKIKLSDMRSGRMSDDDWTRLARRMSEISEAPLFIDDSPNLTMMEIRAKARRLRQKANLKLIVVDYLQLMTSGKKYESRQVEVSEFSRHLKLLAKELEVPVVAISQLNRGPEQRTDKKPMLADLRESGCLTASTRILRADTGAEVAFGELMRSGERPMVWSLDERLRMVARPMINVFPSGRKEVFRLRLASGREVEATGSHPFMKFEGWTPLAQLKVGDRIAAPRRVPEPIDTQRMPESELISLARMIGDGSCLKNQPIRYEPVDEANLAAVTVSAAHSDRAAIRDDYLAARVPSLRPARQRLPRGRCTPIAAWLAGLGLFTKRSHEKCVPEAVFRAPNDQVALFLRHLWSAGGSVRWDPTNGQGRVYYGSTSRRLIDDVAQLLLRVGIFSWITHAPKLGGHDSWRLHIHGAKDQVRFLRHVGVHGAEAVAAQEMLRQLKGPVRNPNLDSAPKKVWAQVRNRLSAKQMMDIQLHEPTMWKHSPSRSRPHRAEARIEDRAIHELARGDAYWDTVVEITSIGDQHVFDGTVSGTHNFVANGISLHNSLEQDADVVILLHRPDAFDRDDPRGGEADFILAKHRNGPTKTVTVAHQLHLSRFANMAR

Protein Wnt-3a, sequence (P27467 whole entry): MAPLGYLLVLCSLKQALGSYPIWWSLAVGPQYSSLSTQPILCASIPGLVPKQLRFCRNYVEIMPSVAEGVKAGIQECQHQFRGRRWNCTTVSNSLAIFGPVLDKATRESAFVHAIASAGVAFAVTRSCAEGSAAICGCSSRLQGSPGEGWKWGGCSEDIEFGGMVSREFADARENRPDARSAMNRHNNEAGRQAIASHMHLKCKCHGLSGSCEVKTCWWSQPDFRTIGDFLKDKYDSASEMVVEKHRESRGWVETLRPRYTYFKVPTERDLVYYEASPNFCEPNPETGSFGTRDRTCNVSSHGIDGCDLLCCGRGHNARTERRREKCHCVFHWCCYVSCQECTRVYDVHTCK

C[C@H](NC(=O)c1ccco1)C(=O)Nc1nc(-c2ccccn2)cs1
AC50 [1]: 90.1 µM (active)

O=C(C[C@@H]1C/C=C\C[C@@H](NC(=O)OCC2c3ccccc3-c3ccccc32)C(=O)OC[C@@H](Cc2ccccc2)NC1=O)NCCO
IC50 (Protein Wnt-3a): 13.5 µM (active)

C=C[C@]1(C)C[C@@H](OC(=O)CSCCN(CC)CC)[C@]2(C)[C@H](C)CC[C@]3(CCC(=O)[C@H]32)[C@@H](C)[C@@H]1O [TIAMULIN FUMARATE]
EC50 (Streptococcus): < 0.06 µM (active) | EC50 [2]: < 0.06 µM (active) | IC50 [3]: 39.8 µM (inactive) | EC50 [4]: 1.75 µM (active) | EC50 [5]: > 60 µM (not active)

O=S(=O)(c1ccc(Br)cc1)N1CCN(c2ccc3nnc(-c4ccccc4)n3n2)CC1
CC50 [6]: 32.9 µM (active) | IC50 [7]: 8.5 µM (active)

CCOc1ccc(NC(=S)NNc2ccnc3cc(Cl)ccc23)cc1
IC50 (Protein Wnt-3a): 11.4 µM (active)

O=[N+]([O-])/C=C/c1cn(Cc2ccc(F)cc2)c2ccccc12
AC50 (INS1): 16.9 µM (active) | AC50 [8]: 8.8 µM (active) | EC50 [9]: 15.2 µM (active) | AC50 [10]: 3.2 µM (active) | IC50 [3]: 4.49 µM (active) | EC50 [11]: 16.4 µM (active)

COc1ccc(-c2noc(CCCCC(=O)N3CCN(c4cc(C)ccc4C)CC3)n2)cc1
IC50 (Protein Wnt-3a): 2.84 µM (active) | AC50 [12]: 2.2 µM (active) | AC50 [13]: 1.75 µM (active)

O=C1NC(=O)C(=NNc2cc([N+](=O)[O-])ccc2O)C(=O)N1
AC50 [1]: 111 µM (active) | EC50 (Protein RecA): 3.79 µM (active) | IC50 (Aminopeptidase N): 11.4 µM (active) | AC50 [14]: 4.84 µM (active)
